Holding throughout (type): in vivo, Drosophila melanogaster
The test system of assay [1] is Rescue (dFMR1-3+wild type rescue fragment) flies. Description: Conditioned courtship: immediate recall (0 minute memory), Rescue flies. On the procedure: To assess immediate recall (0 minute memory), after the one hour training session with a previously mated female, the male was placed with a virgin target female for a ten-minute interval. This CI was then compared to the courtship level of naive males that had been placed in the training chamber for one hour with no female, before introducing them to a virgin target female for a ten-minute interval. In FIG. 1B the w1118 and Rescue lines show depression of courtship activity after training compared to naive trained males (p<0.005). However, dFMR1-3 and FS mutant lines court just as vigorously after training with a previously mated female as naive trained males, therefore these flies display no experience dependent behavioral plasticity at the time point of immediate recall. This is in spite of the fact that they court to similar levels as w1118 and Rescue lines during the training period. This implicates a deficit in synaptic plasticity for the two mutant lines at immediate recall (0 minute memory). This robust deficit in behavioral plasticity is a critical extension of the previous models of Fragile X syndrome in model organisms, since this has been completely missing in Drosophila models and is subtle in murine models, and particularly since this may be one of the most devastating aspects of the human disease.
Immediate recall. […]

The test system is the same in assay [2]. Description: Naive courtship behavior (courtship index toward virgin female), Rescue flies. The following applies: 20-day-old.
Assay [3] has the same test system. Description: Conditioned courtship: learning during training, Rescue flies. The following applies: MPEP 200 μg/ml in development, adulthood or both. The text has this: The role of dFMR1 in learning during training and immediate recall. The flies used were w1118 (the background stock from which the mutation was derived), dFMR1-3 (the mutation lacking dFMR1 expression), Rescue (dFMR1-3+wild type rescue fragment) and FS (frame shift, dFMR1-3+frame shifted rescue fragment) all from Dockendorff et al, 2002. To assess learning during training male flies are placed in a training chamber with a previously mated female for one hour. The amount of time the male spent courting in the initial ten-minute interval was compared to the amount of time the male spent courting the female target in the final ten-minute interval (FIG. 1). […] It is important to note that the level of courtship behavior towards the previously mated female is similar between the two mutant groups and the w1118 and Rescue groups. […] This is important to note, because without actively courting, the male fly cannot be trained (Tompkins et al. 1982; 1983).
Learning during training. In order to assess learning during training, the male flies were placed in a training chamber with a previously mated female for one hour. The amount of time the male spent courting in the first ten-minute interval was compared to the amount of time the male spent courting the female target in the last ten-minute interval (FIG. 4A).
Behavioral Training and Testing. […]

The test system is the same in assay [4]. Description: Discrimination between virgin and previously mated females, Rescue flies. On the procedure:
Short-term memory. The model was further extended to encompass short-term memory at 60 minutes after training. After the one hour training session with a previously mated female, the female is removed and the male is placed in a holding chamber for 60 minutes, then subsequently placed in a testing chamber with a virgin female target to assess short-term memory (FIG. 4C). […] CT-CT FS flies court just as vigorously at 60 minutes after training as naive CT-CT FS flies. […] The FS groups that were treated with MPEP in development alone, adulthood alone or in both development and adulthood display experience dependent reduction of courtship activity at 60 minutes after training when compared to group matched naives M-M FS, p<0.0001, CT-M FS, p<0.0001 and M-CT FS, p<0.0001. […] Additionally, flies were tested for ability to discriminate between virgin and previously mated females (FIG. 4D).
Flies were also tested for ability to discriminate between virgin and previously mated females in FIG. 9C.

In the case of `Cc1cccc(C#Cc2ccccc2)n1` [MPEP, 2-methyl-6-(phenylethynyl)pyridine], the immediate recall in assay [1] (20-day-old, MPEP in development or adulthood or both) is “does not adversely affect immediate recall”; in assay [1] (5 day old, MPEP 200 μg/ml in development or adulthood or both), “does not adversely affect immediate recall”. Moreover, the naive courtship activity result in assay [2] (MPEP (86.6 μM) in adulthood only (CT-M)) is “depressed relative to CT-CT Rescue flies”; in assay [2] (MPEP (86.6 μM) in development then M or CT food as adults) it was “courted as vigorously as CT-CT Rescues flies”. The “learning during training (initial vs final courtship levels)” value in assay [3] (20-day-old) is recorded as “significant depression from the initial to final intervals”. The learning during training entry in assay [3] (5 day old) is “does not adversely affect learning during training”. Also, in assay [4] (20-day-old, MPEP 200 μg/ml in development and adulthood (M-M)), the “time courting virgin female compared to previously mated female (discrimination)” value is “spent significantly more time courting virgin female targets”. Further, the “ability to discriminate between virgin and previously mated females” value in assay [4] (5 day old, MPEP 200 μg/ml in adulthood only (CT-M)) is “spend similar amounts of time courting previously mated female targets and virgin female targets”.

These data come from patent US20080187492A1, “Drosophila Models For Diseases Affecting Learning and Memory” (priority 2004, published 2008).
